The test system of data set [1] is Smn protein in SMA patient fibroblast cells (GM03813). As to the kind of experiment: Smn protein assay in cultured cells (SMN HTRF). The format is cell-based, human. To be noted: SMA patient fibroblast cells, 48 hours; for EC1.5x for Smn protein expression: 7-point concentration curve, SMN HTRF, concentration producing 1.5 times Smn protein vs DMSO vehicle control; for maximum fold (Fold) increase of Smn protein: 7-point concentration data, fold relative to vehicle control. The method in brief: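 Fibroblasts, SMA patient; 5,000 cells/well; 7-pt curve, 3.16-fold serial dilution; 48 h, 37 °C, 5% CO2; RIPA lysis 1 h RT; anti-SMN d2 + kryptate overnight RT; HTRF 665/620 nm; fold vs DMSO; EC1.5×, max fold.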

For data set [2], the system named is SMN2 minigene mRNA (SMN2-A minigene) in HEK293H cells. As to the kind of experiment: SMN2 minigene mRNA splicing RT-qPCR assay in cultured cells. The format is cell-based, human. To be noted: Homo sapiens, HEK293-H; concentration increasing full length SMN2 mRNA 1.5-fold relative to vehicle-treated cells; HEK293H cells with SMN2-A minigene, 24 hours, 7-point concentration data; read-out: EC1.5x for production of full length SMN2 mRNA. The method in brief:
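Stable SMN2-A minigene HEK293H; cpd 7-pt 3.16-fold series, 200× in DMSO, 24 h, 37 °C, n=2. Lysates → multiplex RT-qPCR (minigene FL + GAPDH), efficiency-corrected ΔΔCt vs vehicle. EC1.5× = 1.5-fold FL mRNA gain.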

With `C[C@H]1CN(c2ccc3nc(-c4cncc(Cl)c4)cc(=O)n3c2)CCN1` [Compound 95, 2-(5-chloropyridin-3-yl)-7-[(3S)-3-methylpiperazin-1-yl]-4H-pyrido[1,2-a]pyrimidin-4-one], the melting point fell in the range of 227 to 232 °C. Moreover, in data set [1], the “EC1.5x for Smn protein expression” value was “** (an EC1.5× between >1 μM and ≤3 μM is indicated by two stars (**))”; the “maximum fold (Fold) increase of Smn protein” value (from here on “maximum fold (Fold) increase”) is “**** (a fold increase between >1.5 and ≤1.65 is indicated by four stars (****))”. Besides, the EC (1.5-fold increase) in data set [2] lay within 1 to 3 µM.

On to `COc1ncc(-c2cc(=O)n3cc(N4CCNCC4)ccc3n2)cc1Cl` [Compound 96, 2-(5-chloro-6-methoxypyridin-3-yl)-7-(piperazin-1-yl)-4H-pyrido[1,2-a]pyrimidin-4-one], for which the melting point was 201 to 209 °C. Besides, in data set [1], the “EC1.5x for Smn protein expression” value is “*** (an EC1.5× between >0.3 μM and ≤1 μM is indicated by three stars (***))”; the “maximum fold (Fold) increase” value is “**** (a fold increase between >1.5 and ≤1.65 is indicated by four stars (****))”. In data set [2], the EC (1.5-fold increase) is 0.3 to 1 µM.

`O=c1cc(-c2ccc3cc[nH]c3c2)nc2ccc(N3CCNCC3)cn12` [Compound 97, 2-(1H-indol-6-yl)-7-(piperazin-1-yl)-4H-pyrido[1,2-a]pyrimidin-4-one]: the melting point is 202 to 206 °C. Moreover, the “maximum fold (Fold) increase” value in data set [1] was “** (a fold increase between >1.2 and ≤1.35 is indicated by two stars (**))”. Besides, the EC (1.5-fold increase) in data set [2] lay in the range of 1 to 3 µM.

The compound `O=c1cc(-c2ccc(O)c(OC(F)F)c2)nc2ccc(N3CCNCC3)cn12` [Compound 100, 2-[3-(difluoromethoxy)-4-hydroxyphenyl]-7-(piperazin-1-yl)-4H-pyrido[1,2-a]pyrimidin-4-one] registered a melting point of 233 to 237 °C. In data set [1], the “EC1.5x for Smn protein expression” value was “*** (an EC1.5× between >0.3 μM and ≤1 μM is indicated by three stars (***))”; the “maximum fold (Fold) increase” value is “***** (a fold increase >1.65 is indicated by five stars (*****))”. In addition, the EC (1.5-fold increase) in data set [2] was in the range of 0.3 to 1 µM.

As for `COc1ccc(-c2cc(=O)n3cc(N4CCN[C@@H](C)C4)ccc3n2)cc1OC(F)F` [Compound 101, 2-[3-(difluoromethoxy)-4-methoxyphenyl]-7-[(3S)-3-methylpiperazin-1-yl]-4H-pyrido[1,2-a]pyrimidin-4-one], the melting point is 167 to 169 °C. In data set [1], the “maximum fold (Fold) increase” value was “*** (a fold increase between >1.35 and ≤1.5 is indicated by three stars (***))”. Moreover, the EC (1.5-fold increase) in data set [2] was in the range of 0.3 to 1 µM.

`C[C@H]1CN(c2ccc3nc(-c4ccc(O)c(OC(F)F)c4)cc(=O)n3c2)CCN1` [Compound 102, 2-[3-(difluoromethoxy)-4-hydroxyphenyl]-7-[(3S)-3-methylpiperazin-1-yl]-4H-pyrido[1,2-a]pyrimidin-4-one] returned a melting point of 192 to 197 °C. Also, in data set [1], the “EC1.5x for Smn protein expression” value is “*** (an EC1.5× between >0.3 μM and ≤1 μM is indicated by three stars (***))”; the “maximum fold (Fold) increase” value is listed as “***** (a fold increase >1.65 is indicated by five stars (*****))”. Moreover, in data set [2], the EC (1.5-fold increase) fell in the range of 0.3 to 1 µM.

For `COc1ccc(-c2cc(=O)n3cc(N4CCNCC4)ccc3c2)cc1F` [Compound 103, 2-(3-fluoro-4-methoxyphenyl)-7-(piperazin-1-yl)-4H-quinolizin-4-one], the melting point was 200 to 202 °C. The “maximum fold (Fold) increase” value in data set [1] was “*** (a fold increase between >1.35 and ≤1.5 is indicated by three stars (***))”. Moreover, the EC (1.5-fold increase) in data set [2] lay in the range of 0.3 to 1 µM.

As to `COc1ccc(-c2cc(=O)n3cc(N4CCN[C@@H](C)C4)ccc3c2)cc1F` [Compound 104, 2-(3-fluoro-4-methoxyphenyl)-7-[(3S)-3-methylpiperazin-1-yl]-4H-quinolizin-4-one], the melting point is 188 to 192 °C. For the same compound, the “maximum fold (Fold) increase” value in data set [1] was “*** (a fold increase between >1.35 and ≤1.5 is indicated by three stars (***))”. Besides, in data set [2], the EC (1.5-fold increase) is 0.3 to 1 µM.

`C[C@H]1CN(c2ccc3nc(-c4cc(F)cc(F)c4)cc(=O)n3c2)CCN1` [Compound 105, 2-(3,5-difluorophenyl)-7-[(3S)-3-methylpiperazin-1-yl]-4H-pyrido[1,2-a]pyrimidin-4-one] yielded a melting point of 189 to 194 °C. In data set [1], the “EC1.5x for Smn protein expression” value was “*** (an EC1.5× between >0.3 μM and ≤1 μM is indicated by three stars (***))”; the “maximum fold (Fold) increase” value was “**** (a fold increase between >1.5 and ≤1.65 is indicated by four stars (****))”. In data set [2], the EC (1.5-fold increase) was in the range of 0.1 to 0.3 µM.

Compound `COc1ccc(-c2cc(=O)n3cc(N4CCNCC4)ccc3n2)cc1Cl` [Compound 110, 2-(3-chloro-4-methoxyphenyl)-7-(piperazin-1-yl)-4H-pyrido[1,2-a]pyrimidin-4-one] had a melting point of 201 to 203 °C. Moreover, in data set [1], the “maximum fold (Fold) increase” value is “*** (a fold increase between >1.35 and ≤1.5 is indicated by three stars (***))”. The EC (1.5-fold increase) in data set [2] lay within 0.1 to 0.3 µM.

Consider `COc1ccc(-c2cc(=O)n3cc(N4CCN[C@@H](C)C4)ccc3n2)cc1Cl` [Compound 111, 2-(3-chloro-4-methoxyphenyl)-7-[(3S)-3-methylpiperazin-1-yl]-4H-pyrido[1,2-a]pyrimidin-4-one], for which the melting point lay within 187 to 189 °C. Further, the “maximum fold (Fold) increase” value in data set [1] was “*** (a fold increase between >1.35 and ≤1.5 is indicated by three stars (***))”. In addition, the EC (1.5-fold increase) in data set [2] lay within 0.1 to 0.3 µM.

On to `CCOc1cc(-c2cc(=O)n3cc(N4CCNCC4)ccc3n2)ccc1OC` [Compound 112, 2-(3-ethoxy-4-methoxyphenyl)-7-(piperazin-1-yl)-4H-pyrido[1,2-a]pyrimidin-4-one], for which the melting point was 194 to 196 °C. Besides, the “maximum fold (Fold) increase” value in data set [1] is “*** (a fold increase between >1.35 and ≤1.5 is indicated by three stars (***))”. In data set [2], the EC (1.5-fold increase) fell in the range of 0.3 to 1 µM.

Take `CCOc1cc(-c2cc(=O)n3cc(N4CCN[C@@H](C)C4)ccc3n2)ccc1OC` [Compound 113, 2-(3-ethoxy-4-methoxyphenyl)-7-[(3S)-3-methylpiperazin-1-yl]-4H-pyrido[1,2-a]pyrimidin-4-one]: the melting point lay within 159 to 162 °C. The “maximum fold (Fold) increase” value in data set [1] was “*** (a fold increase between >1.35 and ≤1.5 is indicated by three stars (***))”. Further, the EC (1.5-fold increase) in data set [2] lay in the range of 1 to 3 µM.

In turn, `Cc1cn2cc(-c3cc(=O)n4cc(N5C[C@@H](C)N[C@@H](C)C5)ccc4n3)ccc2n1` [Compound 117, 7-[(3R,5S)-3,5-dimethylpiperazin-1-yl]-2-(2-methylimidazo[1,2-a]pyridin-6-yl)-4H-pyrido[1,2-a]pyrimidin-4-one] returned a melting point of 181 to 186 °C. Further, in data set [1], the “EC1.5x for Smn protein expression” value is reported as “**** (an EC1.5x≤0.3 μM is indicated by four stars (****))”; the “maximum fold (Fold) increase” value was “**** (a fold increase between >1.5 and ≤1.65 is indicated by four stars (****))”. Moreover, in data set [2], the EC (1.5-fold increase) was under 0.1 µM.

`Cc1cn2cc(-c3cc(=O)n4cc(N5CCNCC5)ccc4n3)nc2c(C)n1` [Compound 118, 2-(6,8-dimethylimidazo[1,2-a]pyrazin-2-yl)-7-(piperazin-1-yl)-4H-pyrido[1,2-a]pyrimidin-4-one] yielded a melting point of 189 to 192 °C. For the same compound, in data set [1], the “EC1.5x for Smn protein expression” value was “*** (an EC1.5× between >0.3 μM and ≤1 μM is indicated by three stars (***))”; the “maximum fold (Fold) increase” value is “***** (a fold increase >1.65 is indicated by five stars (*****))”. Also, the EC (1.5-fold increase) in data set [2] fell in the range of 0.1 to 0.3 µM.

`Cc1cn2cc(-c3cc(=O)n4cc(N5CCN[C@@H](C)C5)ccc4n3)nc2c(C)n1` [Compound 119, 2-(6,8-dimethylimidazo[1,2-a]pyrazin-2-yl)-7-[(3S)-3-methylpiperazin-1-yl]-4H-pyrido[1,2-a]pyrimidin-4-one]: the melting point was in the range of 202 to 208 °C. In addition, in data set [1], the “EC1.5x for Smn protein expression” value was “*** (an EC1.5× between >0.3 μM and ≤1 μM is indicated by three stars (***))”; the “maximum fold (Fold) increase” value is listed as “***** (a fold increase >1.65 is indicated by five stars (*****))”. The EC (1.5-fold increase) in data set [2] lay in the range of 0.1 to 0.3 µM.

`Cc1cn2nc(-c3cc(=O)n4cc(N5CCN[C@@H](C)C5)ccc4n3)cc2c(C)n1` [Compound 121, 2-(4,6-dimethylpyrazolo[1,5-a]pyrazin-2-yl)-7-[(3S)-3-methylpiperazin-1-yl]-4H-pyrido[1,2-a]pyrimidin-4-one]: the melting point is 192 to 194 °C. Besides, in data set [1], the “EC1.5x for Smn protein expression” value is “**** (an EC1.5x≤0.3 μM is indicated by four stars (****))” and the “maximum fold (Fold) increase” value is reported as “***** (a fold increase >1.65 is indicated by five stars (*****))”. In data set [2], the EC (1.5-fold increase) is under 0.1 µM.

As to `COc1ccc(-c2cc(=O)n3cc(-c4ccnc(C)c4)ccc3n2)cc1OC` [Compound 122, 2-(3,4-dimethoxyphenyl)-7-(2-methylpyridin-4-yl)-4H-pyrido[1,2-a]pyrimidin-4-one], the melting point lay within 197 to 200 °C. For the same compound, the “maximum fold (Fold) increase” value in data set [1] is “*** (a fold increase between >1.35 and ≤1.5 is indicated by three stars (***))”. In addition, the EC (1.5-fold increase) in data set [2] lay within 1 to 3 µM.

The record behind these values is US11753407B2, “Compounds for treating spinal muscular atrophy” (PTC Therapeutics, Inc., priority 2012, dated 2023).
